Measurements: patent publication US9051317B2, “Azaindoles as respiratory syncytial virus antiviral agents” (JANSSEN SCIENCES IRELAND UC, priority 2010, dated 2015)

Experiments:
rgRSV224 virus = assay: microbe, parasite or virus in culture; assay type: cell-based, respiratory syncytial virus (RSV); conditions: human respiratory syncytial virus, HeLa, 72 h, read-out: WT activity EC50
Description: (§1) Black 96-well clear-bottom microtiter plates (Corning, Amsterdam, The Netherlands) were filled in duplicate using a customized robot system with serial 4-fold dilutions of compound in a final volume of 50 μl culture medium [RPMI medium without phenol red, 10% FBS, 0.04% gentamycin (50 mg/mL) and 0.5% DMSO]. Then, 100 μl of a HeLa cell suspension (5×10^4 cells/mL) in culture medium was added to each well followed by the addition of 50 μl rgRSV224 (MOI=0.02) virus in culture medium using a multidrop dispenser (Thermo Scientific, Erembodegem, Belgium). rgRSV224 virus is an engineered virus that includes an additional GFP gene (Hallak et al, 2000) and was in-licensed from the NIH (Bethesda, Md., USA). Medium, virus- and mock-infected controls were included in each test. Cells were incubated at 37° C. in a 5% CO2 atmosphere. Three days post-virus exposure, viral replication was quantified by measuring GFP expression in the cells by a MSM laser microscope (Tibotec, Beerse, Belgium). The EC50 was defined as the 50% inhibitory concentration for GFP expression. In parallel, compounds were incubated for three days in a set of white 96-well microtitier plates (Corning) and the cytotoxicity of compounds in HeLa cells was determined by measuring the ATP content of the cells using the ATPlite kit (PerkinElmer, Zaventem, Belgium) according to the manufacturer's instructions. The CC50 was defined as the 50% concentration for cytotoxicity.

[1] = Cytotoxicity in HeLa cells, ATP content (ATPlite kit); assay type: cell-based; conditions: human, Table 1, three days incubation, read-out: Toxicity CC50
Description: as §1

Compound: O=c1n(Cc2cc3nc(O)ccc3n2CCCCO)c2cnccc2n1C1CC1 [Compound P8, 1-Cyclopropyl-3-{[5-hydroxy-1-(4-hydroxybutyl)-1H-pyrrolo[3,2-b]pyridin-2-yl]methyl}-1,3-dihydro-2H-imidazo[4,5-c]pyridin-2-one]
- EC50 (rgRSV224 virus): 8.46 µM
- CC50 at 3 days [1]: > 9.84 µM

Compound: CC(C)(C)C(=O)OCCCCn1c(Cn2c(=O)n(C3CC3)c3ccncc32)cc2nc(O)ccc21 [Compound P9, 4-{2-[(1-Cyclopropyl-2-oxo-1,2-dihydro-3H-imidazo[4,5-c]pyridin-3-yl)methyl]-5-hydroxy-1H-pyrrolo[3,2-b]pyridin-1-yl}butyl 2,2-dimethylpropanoate]
- EC50 (rgRSV224 virus): > 9.84 µM
- CC50 at 3 days [1]: > 9.84 µM

Compound: CC(C)CCn1c(Cn2c(=O)n(C3CC3)c3ccncc32)cc2cccnc21 [Compound P10, 1-Cyclopropyl-3-{[1-(3-methylbutyl)-1H-pyrrolo[2,3-b]pyridin-2-yl]methyl}-1,3-dihydro-2H-imidazo[4,5-c]pyridin-2-one]
- EC50 (rgRSV224 virus): > 98.4 µM
- CC50 at 3 days [1]: > 98.4 µM
